Data on three compounds can be found in patent US5563052A, “Process for producing L-tryptophan” (Kyowa Hakko Kogyo Co., LTD, priority 1988, dated 1996).

Where two headings read alike, the source gives them in different places.

Holding throughout (type): biochemical, Corynebacterium glutamicum
The test system of assay [1] is 3-deoxy-D-arabino-hepturosonate-7-phosphate synthase (DS). Kind of assay: Inhibition of DS activity by phenylalanine and tyrosine. The conditions noted are these: DS in the ATCC 13032 transformant carrying pCGDS1. As to the method:
DS activities of Corynebacterium glutamicum ATCC 13032 and the transformant carrying pCGDS1 were determined according to the method of P. R. Sprinavasan, D. B. Sprinson, et al. [J. Biol. Chem., 234, 716 (1959)].

Assay [2] concerns anthranilate phosphoribosyl transferase (PRT). Kind of assay: Feedback inhibition of anthranilate phosphoribosyl transferase (PRT) activity by tryptophan. The conditions noted are these: for IC50: read-out: Tryptophan concentration for 50% inhibiting the PRT activity. As to the method:
(§1) AS activities of Corynebacterium glutamicum ATCC 13032 and TA108 strains carrying pCtrp1 or pCtrp57 were determined according to the method of H. Hagino, et al. [Agric. Biol. Chem., 39, 323 (1975)], and their PRT activities were determined according to the method of J. Ito and C. Yanofsky [J. Biol. Chem., 97, 734 (1969)]. AS and PRT activities of TA108 strains carrying pCtrp1 or pCtrp57 were more than 10 times as high as those of ATCC 13032 strain. Tryptophan concentrations for 50% inhibiting the AS activities of […] strain, TA108 strain carrying pCtrp1 and TA108 strain carrying pCtrp57 were 0.002 mM, 0.008 mM and 4.0 mM, respectively, while tryptophan concentrations for 50% inhibiting the PRT activities of these three strains were 0.19 mM, 0.19 mM and 4.8 mM, respectively.

The test system of assay [3] is anthranilate synthase (AS). Kind of assay: Feedback inhibition of anthranilate synthase (AS) activity by tryptophan. The conditions noted are these: for IC50: read-out: Tryptophan concentration for 50% inhibiting the AS activity. The method, then: as §1

On to `N[C@@H](Cc1ccccc1)C(=O)O` [phenylalanine], for which the “Inhibition of DS” value in assay [1] is “free from inhibition”.

For the compound `N[C@@H](Cc1c[nH]c2ccccc12)C(=O)O` [tryptophan], the “Factor by which PRT is less sensitive to tryptophan” value in assay [2] (PRT encoded by pCtrp57 compared with PRT encoded by pCtrp1) was “about 25”. Further, the IC50 came out at 190 µM in assay [2] (PRT of TA108 strain carrying pCtrp1), 4800 µM in assay [2] (PRT of TA108 strain carrying pCtrp57), 8 µM in assay [3] (AS of TA108 strain carrying pCtrp1) and 4000 µM in assay [3] (AS of TA108 strain carrying pCtrp57). Moreover, the “Factor by which AS is less sensitive to tryptophan” value in assay [3] (AS encoded by pCtrp57 compared with AS encoded by pCtrp1) was “about 500”.

In the case of `N[C@@H](Cc1ccc(O)cc1)C(=O)O` [tyrosine], the “Inhibition of DS” value in assay [1] is listed as “free from inhibition”.
